Measurements from US20220306695A1, “COMPSTATIN ANALOGUES AND THEIR MEDICAL USES” (priority 2019, published 2022).
Starred links: 1 amine or outer side, 2 acyl side, 3 side chain; linkers in the order of their positions; H or OH if unused. Positions of bridges follow the written chain, without caps; N, C: chain ends. Non-standard residues stand in square brackets, D forms with d. Residues, ends and D or L forms follow the SMILES beside them. Groups on a side chain read outwards from the residue. *: point of attachment. Trp(1-Me) = Cn1cc(C[C@H](N)C(=O)O)c2ccccc21; C18 diacid = O=C(O)CCCCCCCCCCCCCCCCC(=O)*; γGlu = O=C(O)[C@H](CCC(=O)[*:2])N[*:1]; 2Nal = N[C@@H](Cc1ccc2ccccc2c1)C(=O)O; Sar = CNCC(=O)O

Columns and labels:
[1] = Solubility test at 10 mg/mL (visual inspection and light scattering); format: physicochemical; details: for Solubility, Condition 1 Acetate pH 4: 10 mg/mL compound in 100 mM acetate pH 4; for Solubility, Condition 2 Acetate pH 5: 10 mg/mL compound in 100 mM acetate pH 5; for Solubility, Condition 3 Phosphate pH 6: 10 mg/mL compound in 100 mM phosphate pH 6; for Solubility, Condition 4 Phosphate pH 7: 10 mg/mL compound in 100 mM phosphate pH 7; for Solubility, Condition 5 Phosphate pH 7.5: 10 mg/mL compound in 100 mM phosphate pH 7.5
[2] = tested on: classical complement pathway; assay: In vitro haemolysis assay (inhibition of classical complement pathway); format: cell-based, human; details: Table 3; human serum, sensitized sheep red blood cells; read-out: IC50[nM], in vitro analysis of inhibition of hemolysis
How it was run: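 Serially diluted compound (9 points) was preincubated 15 min at room temperature with diluted human serum, titrated per batch to give 70-90% maximal haemolysis, in Tris/casein buffer pH 7.4 with Mg2+/Ca2+. Antibody-sensitized sheep erythrocytes were then added for 30 min at 37° C, and the reaction was stopped with EDTA. Haemolysis was read at A405, with IC50 from 4PL fit.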

With `CC[C@H](C)[C@@H]1NC(=O)[C@@H](NC(=O)[C@H](Cc2ccccc2)NC(=O)[C@H](C)NC(=O)[C@H](CO)NC(=O)CNC(=O)[C@H](CCC(=O)O)NC(C)=O)CSSC[C@@H](C(=O)N[C@H](C(=O)N[C@@H](CCC(=O)O)C(N)=O)[C@@H](C)O)NC(=O)[C@H](CCCNC(=N)N)NC(=O)[C@H](Cc2c[nH]cn2)NC(=O)[C@H](CCC(=O)O)NC(=O)CNC(=O)[C@H](Cc2c[nH]c3ccccc23)NC(=O)[C@H](CC(=O)O)NC(=O)[C@H](CCC(N)=O)NC(=O)[C@H](Cc2ccc3ccccc3c2)NC1=O` [Compound 60] (Ac-EGSAFCI[2Nal]QDWGEHRCTE-NH2; disulfide 6-16) the “Solubility, Condition 1 Acetate pH 4” value [1] was “− (denotes lack of solubility at the given condition, as UV absorbance at 340 nm exceeds 0.1 AU and/or it is visibly turbid or contains particles.)”, the “Solubility, Condition 2 Acetate pH 5” value [1] was “− (denotes lack of solubility at the given condition, as UV absorbance at 340 nm exceeds 0.1 AU and/or it is visibly turbid or contains particles.)” and the “Solubility, Condition 3 Phosphate pH 6” value [1] was “+ (denotes solubility at the given condition, as determined by UV absorbance being less than 0.1 AU at 340 nm and the sample being clear when manually inspected.)”. The “Solubility, Condition 4 Phosphate pH 7” value [1] was “+ (denotes solubility at the given condition, as determined by UV absorbance being less than 0.1 AU at 340 nm and the sample being clear when manually inspected.)”, the “Solubility, Condition 5 Phosphate pH 7.5” value [1] was “+ (denotes solubility at the given condition, as determined by UV absorbance being less than 0.1 AU at 340 nm and the sample being clear when manually inspected.)” and the IC50 [2] was < 100 nM.
For `CC[C@H](C)[C@H](NC(=O)[C@H](C)NC(=O)[C@H](CO)NC(C)=O)C(=O)N[C@H]1CSSC[C@@H](C(=O)N(C)CC(=O)N[C@@H](CCC(=O)O)C(N)=O)NC(=O)[C@H](CCCNC(=N)N)NC(=O)[C@H](Cc2c[nH]cn2)NC(=O)[C@H](CCC(=O)O)NC(=O)CNC(=O)[C@H](Cc2c[nH]c3ccccc23)NC(=O)[C@H](CC(=O)O)NC(=O)[C@H](CCC(N)=O)NC(=O)[C@H](Cc2c[nH]c3ccccc23)NC(=O)[C@H]([C@@H](C)CC)NC1=O` [Compound 41] (Ac-SAICIWQDWGEHRC[Sar]E-NH2; disulfide 4-14), the “Solubility, Condition 1 Acetate pH 4” value [1] was “− (denotes lack of solubility at the given condition, as UV absorbance at 340 nm exceeds 0.1 AU and/or it is visibly turbid or contains particles.)”, the “Solubility, Condition 2 Acetate pH 5” value [1] was “− (denotes lack of solubility at the given condition, as UV absorbance at 340 nm exceeds 0.1 AU and/or it is visibly turbid or contains particles.)” and the “Solubility, Condition 3 Phosphate pH 6” value [1] was “+ (denotes solubility at the given condition, as determined by UV absorbance being less than 0.1 AU at 340 nm and the sample being clear when manually inspected.)”. The “Solubility, Condition 4 Phosphate pH 7” value [1] was “+ (denotes solubility at the given condition, as determined by UV absorbance being less than 0.1 AU at 340 nm and the sample being clear when manually inspected.)”, the “Solubility, Condition 5 Phosphate pH 7.5” value [1] was “+ (denotes solubility at the given condition, as determined by UV absorbance being less than 0.1 AU at 340 nm and the sample being clear when manually inspected.)” and the IC50 [2] was < 250 nM.
With `CC[C@H](C)[C@@H]1NC(=O)[C@@H](NC(=O)[C@H](Cc2ccc(O)cc2)NC(C)=O)CSSC[C@@H](C(=O)N[C@H](C(=O)NCC(=O)N[C@@H](C)C(=O)N[C@@H](CCC(=O)O)C(=O)N[C@@H](CO)C(N)=O)[C@@H](C)O)NC(=O)[C@H](CCCNC(=N)N)NC(=O)[C@H](Cc2c[nH]cn2)NC(=O)[C@H](CCC(=O)O)NC(=O)CNC(=O)[C@H](Cc2c[nH]c3ccccc23)NC(=O)[C@H](CC(=O)O)NC(=O)[C@H](CCC(N)=O)NC(=O)[C@H](Cc2c[nH]c3ccccc23)NC1=O` [Compound 66] (Ac-YCIWQDWGEHRCTGAES-NH2; disulfide 2-12) the “Solubility, Condition 1 Acetate pH 4” value [1] was “− (denotes lack of solubility at the given condition, as UV absorbance at 340 nm exceeds 0.1 AU and/or it is visibly turbid or contains particles.)”, the “Solubility, Condition 2 Acetate pH 5” value [1] was “− (denotes lack of solubility at the given condition, as UV absorbance at 340 nm exceeds 0.1 AU and/or it is visibly turbid or contains particles.)” and the “Solubility, Condition 3 Phosphate pH 6” value [1] was “+ (denotes solubility at the given condition, as determined by UV absorbance being less than 0.1 AU at 340 nm and the sample being clear when manually inspected.)”. For the same compound, the “Solubility, Condition 4 Phosphate pH 7” value [1] was “+ (denotes solubility at the given condition, as determined by UV absorbance being less than 0.1 AU at 340 nm and the sample being clear when manually inspected.)”, the “Solubility, Condition 5 Phosphate pH 7.5” value [1] was “+ (denotes solubility at the given condition, as determined by UV absorbance being less than 0.1 AU at 340 nm and the sample being clear when manually inspected.)” and the IC50 [2] was < 100 nM.
In the case of `CC[C@H](C)[C@@H]1NC(=O)[C@@H](NC(=O)[C@@H](NC(=O)[C@H](CCC(=O)O)NC(=O)[C@H](CO)NC(C)=O)[C@@H](C)CC)CSSC[C@@H](C(=O)N[C@H](C(=O)N[C@@H](CCC(=O)O)C(=O)N[C@@H](C)C(N)=O)[C@@H](C)O)NC(=O)[C@H](CCCNC(=N)N)NC(=O)[C@H](Cc2c[nH]cn2)NC(=O)[C@H](CCC(=O)O)NC(=O)CNC(=O)[C@H](Cc2c[nH]c3ccccc23)NC(=O)[C@H](CC(=O)O)NC(=O)[C@H](CCC(N)=O)NC(=O)[C@H](Cc2c[nH]c3ccccc23)NC1=O` [Compound 32] (Ac-SEICIWQDWGEHRCTEA-NH2; disulfide 4-14), the “Solubility, Condition 1 Acetate pH 4” value [1] is reported as “− (denotes lack of solubility at the given condition, as UV absorbance at 340 nm exceeds 0.1 AU and/or it is visibly turbid or contains particles.)”, the “Solubility, Condition 2 Acetate pH 5” value [1] is reported as “− (denotes lack of solubility at the given condition, as UV absorbance at 340 nm exceeds 0.1 AU and/or it is visibly turbid or contains particles.)” and the “Solubility, Condition 3 Phosphate pH 6” value [1] is reported as “− (denotes lack of solubility at the given condition, as UV absorbance at 340 nm exceeds 0.1 AU and/or it is visibly turbid or contains particles.)”. The “Solubility, Condition 4 Phosphate pH 7” value [1] was “+ (denotes solubility at the given condition, as determined by UV absorbance being less than 0.1 AU at 340 nm and the sample being clear when manually inspected.)”, the “Solubility, Condition 5 Phosphate pH 7.5” value [1] was “+ (denotes solubility at the given condition, as determined by UV absorbance being less than 0.1 AU at 340 nm and the sample being clear when manually inspected.)” and the IC50 [2] was < 100 nM.
In the case of `CC[C@H](C)[C@H](NC(=O)[C@H](C)NC(=O)[C@H](CO)NC(=O)CNC(=O)[C@H](CCC(=O)O)NC(C)=O)C(=O)N[C@H]1CSSC[C@@H](C(=O)N[C@H](C(=O)N[C@@H](CCC(=O)O)C(N)=O)[C@@H](C)O)NC(=O)[C@H](CCCNC(=N)N)NC(=O)[C@H](Cc2c[nH]cn2)NC(=O)[C@H](CCC(=O)O)NC(=O)CNC(=O)[C@H](Cc2c[nH]c3ccccc23)NC(=O)[C@H](CC(=O)O)NC(=O)[C@H](CCC(N)=O)NC(=O)[C@H](Cc2c[nH]c3ccccc23)NC(=O)[C@H]([C@@H](C)CC)NC1=O` [Compound 55] (Ac-EGSAICIWQDWGEHRCTE-NH2; disulfide 6-16), the “Solubility, Condition 1 Acetate pH 4” value [1] is reported as “− (denotes lack of solubility at the given condition, as UV absorbance at 340 nm exceeds 0.1 AU and/or it is visibly turbid or contains particles.)”, the “Solubility, Condition 2 Acetate pH 5” value [1] is reported as “− (denotes lack of solubility at the given condition, as UV absorbance at 340 nm exceeds 0.1 AU and/or it is visibly turbid or contains particles.)” and the “Solubility, Condition 3 Phosphate pH 6” value [1] is reported as “+ (denotes solubility at the given condition, as determined by UV absorbance being less than 0.1 AU at 340 nm and the sample being clear when manually inspected.)”. The “Solubility, Condition 4 Phosphate pH 7” value [1] was “+ (denotes solubility at the given condition, as determined by UV absorbance being less than 0.1 AU at 340 nm and the sample being clear when manually inspected.)”, the “Solubility, Condition 5 Phosphate pH 7.5” value [1] was “+ (denotes solubility at the given condition, as determined by UV absorbance being less than 0.1 AU at 340 nm and the sample being clear when manually inspected.)” and the IC50 [2] was < 250 nM.
In the case of `CC[C@H](C)[C@@H]1NC(=O)[C@@H](NC(=O)[C@H](Cc2ccc(O)cc2)NC(=O)[C@H](CCC(=O)O)NC(=O)[C@H](CO)NC(C)=O)CSSC[C@@H](C(=O)N(C)CC(=O)N[C@@H](CCC(=O)O)C(=O)NCC(=O)N[C@@H](CCCCN)C(=O)N[C@@H](CCCCNC(=O)CC[C@H](NC(=O)CNC(=O)CC[C@H](NC(=O)CCCCCCCCCCCCCCCCC(=O)O)C(=O)O)C(=O)O)C(N)=O)NC(=O)[C@H](CCCNC(=N)N)NC(=O)[C@H](Cc2c[nH]cn2)NC(=O)[C@H](CCC(=O)O)NC(=O)CNC(=O)[C@H](Cc2c[nH]c3ccccc23)NC(=O)[C@H](CC(=O)O)NC(=O)[C@H](CCC(N)=O)NC(=O)[C@H](Cc2cn(C)c3ccccc23)NC1=O` [Compound 115] (Ac-SEYCI[Trp(1-Me)]QDWGEHRC[Sar]EGKK([γGlu-Gly-γGlu-C18 diacid])-NH2; disulfide 4-14), the “Solubility, Condition 1 Acetate pH 4” value [1] is reported as “− (denotes lack of solubility at the given condition, as UV absorbance at 340 nm exceeds 0.1 AU and/or it is visibly turbid or contains particles.)”, the “Solubility, Condition 2 Acetate pH 5” value [1] is reported as “− (denotes lack of solubility at the given condition, as UV absorbance at 340 nm exceeds 0.1 AU and/or it is visibly turbid or contains particles.)” and the “Solubility, Condition 3 Phosphate pH 6” value [1] is reported as “+ (denotes solubility at the given condition, as determined by UV absorbance being less than 0.1 AU at 340 nm and the sample being clear when manually inspected.)”. The “Solubility, Condition 4 Phosphate pH 7” value [1] was “+ (denotes solubility at the given condition, as determined by UV absorbance being less than 0.1 AU at 340 nm and the sample being clear when manually inspected.)”, the “Solubility, Condition 5 Phosphate pH 7.5” value [1] was “+ (denotes solubility at the given condition, as determined by UV absorbance being less than 0.1 AU at 340 nm and the sample being clear when manually inspected.)” and the IC50 [2] was < 250 nM.
